These results are taken from patent publication US10105426B2, “Immunostimulatory combinations” (TRUSTEES OF DARTMOUTH COLLEGE, priority 2002, dated 2018).

Format in all cases: in vivo, C57BL6 mice
The subject of assay [1] is ovalbumin-specific CD8^+ T cells. Briefly: Expansion of ovalbumin-specific CD8+ T cells after i.v. immunization with ovalbumin peptide (Example 1, MHC tetramer flow cytometry of spleen cells). Particulars: 100 μg ovalbumin peptide + 100 μg 1C10 anti-CD40 antibody + 200 μg IRM1 i.v., day 5, combination vs either agonist alone. As for the experimental part:
Unless otherwise indicated, mice used in the following examples are C57BL6 mice, available from Charles River Laboratories, Inc., Wilmington, Mass.
MHC tetrameric reagent was prepared using a eukaryotic (Baculovirus) expression system as follows/described in Kedl et al., JEM 192(8):1105-1113 (2000).
2-5 Mice were immunized intravenously with (A) 100 μg ovalbumin peptide, (B) 100 μg ovalbumin peptide+100 μg anti-CD40 antibody (1C10), (C) 100 μg ovalbumin peptide+200 μg IRM1, or (D) 100 μg ovalbumin peptide+100 μg 1C10 anti-CD40 antibody+200 μg IRM1. At five days after the immunizations, the spleens were removed from the mice and homogenized. The homogenized cell suspension was stained with a major histocompatibility complex (MHC) tetrameric reagent for detecting ovalbumin-specific T cells (Kedl et al., JEM 192(8):1105-1113 (2000)), a CD8 stain (BD Biosciences Pharmingen, San Diego, Calif.), and a CD44 stain (BD Biosciences Pharmingen, San Diego, Calif.). When subjected to flow cytometry, ovalbumin-specific CD8^+ T cells are shown in the upper right quadrant of the dot plots shown in FIG. 1.

Assay [2] shares this test system. Briefly: Expansion kinetics of ovalbumin-specific CD8+ T cells after i.p. immunization with whole ovalbumin (Example 2). As to conditions: 5 mg ovalbumin + 50 μg FGK4.5 anti-CD40 antibody + 220 μg IRM1 i.p.; spleen, days 4-12. As for the experimental part:
Mice were intraperitoneally injected with 5 mg ovalbumin (Sigma Chemical Co., St. Louis, Mo.), 50 μg FGK4.5 anti-CD40 antibody, and 220 μg IRM1. Mice were sacrificed on each of days four, five, six, nine, and twelve. The spleens were removed from the sacrificed mice and homogenized. The homogenized cell suspensions were stained and analyzed as described in Example 1. When subjected to flow cytometry, ovalbumin-specific CD8^+ T cells (top) and ovalbumin-specific CD8^+/CD44+ T cells (bottom) were identified and are shown in the upper right quadrant of each dot plot. The numbers in the upper right quadrant indicate the percentage of cells in that quadrant.

In assay [3] the test system is TRP2-ΔV-specific CD8^+ T cells. Briefly: Expansion of TRP2-ΔV-specific CD8+ T cells after i.v. immunization (Example 3). Particulars: 100 μg FGK4.5 + 200 μg IRM1 + 100 μg TRP2-ΔV peptide i.v.; spleen, day 5. As for the experimental part: Mice were immunized intravenously with 100 μg FGK4.5 anti-CD40 antibody+200 μg IRM1 and either (A) no peptide, (B) 100 μg ovalbumin peptide, or (C) 100 μg TRP2-ΔV peptide. At five days after the immunizations, the spleens were removed from the mice and homogenized. The homogenized cell suspension was stained as in Example 1, except that the MHC tetramer reagent was prepared for detecting TRP2-ΔV-specific T cells. When subjected to flow cytometry, TRP2-ΔV-specific CD8^+ T cells are shown in the upper right quadrant of the dot plots shown in FIG. 3. The numbers in the upper right quadrant indicate the percentage of cells in that quadrant.

In another assay the test system is CD8^+ memory T cells. Briefly: Generation and re-activation of CD8+ memory T cells (Example 4). Particulars: day 0: 100 μg ovalbumin peptide + 200 μg IRM1 + 100 μg 1C10 i.v.; challenge day 28 with peptide or peptide + 200 μg IRM1; analysis day 33. As for the experimental part:
Mice were immunized intravenously on day 0 with 100 μg ovalbumin peptide+200 μg IRM 1+100 μg of 1C10 anti-CD40 antibody. On day 28, the mice were either (A) left unchallenged, (B) challenged intravenously with 100 μg ovalbumin peptide, or (C) challenged intravenously with 100 μg ovalbumin peptide+200 μg IRM1. On day 33, the mice were sacrificed, the spleens removed and spleen cells homogenized. The homogenized cells were stained and analyzed as described in Example 1.

The subject of assay [4] is melanoma B16ova tumor cells. The assay is described as follows: Tumor growth after melanoma B16ova challenge, immunization with ovalbumin peptide (Example 6). Particulars: B16ova intradermal day 0; immunization day 7 with 100 μg ovalbumin peptide + 200 μg IRM + 100 μg 1C10; measured day 21. As for the experimental part: Mice were challenged intradermally on day 0 with 1×10^5 melanoma B16ova tumor cells in PBS (Kedl et al. PNAS 98(19):10811-10816). On day 7, the mice were immunized with either (A) 100 μg ovalbumin peptide, (B) 100 μg ovalbumin peptide+200 μg IRM1, or (C) 100 μg ovalbumin peptide+200 μg IRM1+100 μg 1C10 anti-CD40 antibody. On day 21, the mice were sacrificed and the tumors were measured in two dimensions by caliper.
Mice also were challenged as described above, and immunized as described above except that IRM2 was substituted for IRM1.

Assay [5] deals with melanoma B16ova tumor cells. Briefly: Tumor growth after melanoma B16ova challenge, immunization with tumor lysate (Example 7). Particulars: B16ova day 0; immunization day 7 with 1×10^6 CE tumor lysate ± 200 μg IRM1 ± 100 μg FGK4.5; measured days 14 and 20. As for the experimental part:
Mice were challenged with tumor on day 0 as in example 6. 5 mice each were immunized on days 7 with 1×10^6 cell equivalents (CE) (A) tumor lysate, (B) 1×10^6 CE tumor lysate+200 μg IRM1, (C) 1×10^6 CE tumor lysate+100 μg FGK4.5 anti-CD40 antibody, or (D)1×10^6 CE tumor lysate+200 μg IRM1+100 μg FGK4.5 anti-CD40 antibody. Tumor sizes were measured on the mice by caliper on days 14 and 20.

Assay [6] has as its system CD8^+ T cells. Briefly: CD8+ T cell expansion with IRM1 and different TNF/R agonists (Example 9). As to conditions: 1 mg ovalbumin + 200 μg IRM1 + 200 μg TNF/R agonist; spleen, day 6. As for the experimental part: Mice were immunized on day 0 with 1 mg ovalbumin, 200 μg IRM1, and either 200 μg CD40 ligand (FGK4.5), 200 μg 4-1BB ligand (anti-mouse 4-1BB antibody, clone 17B3, eBioscience, San Diego, Calif.), or no TNF/R agonist (control).

Assay [7] deals with CD8^+ T cells. The assay is described as follows: CD8+ T cell expansion with CD40 agonist and different IRM compounds (Example 8). As to conditions: 500 μg ovalbumin + 50 μg FGK4.5 + IRM (500 μg IRM3, 200 μg IRM4, 800 μg IRM5, 800 μg IRM2) i.p.; spleen, day 6; n=3. As for the experimental part:
Mice were intraperitoneally injected on day 0 with 500 μg ovalbumin, 50 μg CD40 agonist (FGK4.5), and either 500 μg IRM3, 200 μg IRM4, 800 μg IRM5, 800 μg IRM2, or no IRM (control).

With `Cc1nc2c(N)nc3ccccc3c2n1CC(C)(C)O` [IRM1, 4-amino-α,α,2-trimethyl-1H-imidazo[4,5-c]quinolin-1-ethanol], in assay [1], the “Expansion of the ovalbumin-specific CD8^+ T cell population” value is “greater than the expansion of the ovalbumin-specific CD8^+ T cell populations after stimulation with either the anti-CD40 antibody or IRM alone”. Besides, the “CD8^+ T cell expansion (ovalbumin-specific)” value in assay [2] is recorded as “synergistic effect on CD8^+ T cell expansion”. For the same compound, the “Expansion of antigen-specific (TRP2-ΔV) CD8^+ T cells” value in assay [3] is “synergistic expansion of antigen-specific CD8^+ T cells”. Further, the “Generation and re-activation of CD8^+ memory T cells” value in the assay on CD8^+ memory T cells is “generates a pool of long-lived CD8^+ memory T cells that can be reactivated by treatment with IRM and the antigen”. Also, the “Tumor growth (tumor size by caliper)” value in assay [4] is “slower tumor growth than immunization with IRM alone”; in assay [5], “slower tumor growth than immunization with IRM alone or CD40 agonist alone”. Besides, in the assay with CD8^+ T cells [6], the “Expansion of CD8^+ T cells” value is listed as “Synergistic expansion of CD8^+ T cells”.

`COCCc1nc2c(N)nc3ccccc3c2n1CCOCCN(C)C(=O)N1CCOCC1` [IRM2, N-(2-{2-[4-amino-2-(2-methoxyethyl)-1H-imidazo[4,5-c]quinolin-1-yl]ethoxy}ethyl)-N-methylmorpholine-4-carboxamide]: the “Expansion of CD8^+ T cells” value in the assay with CD8^+ T cells [7] was “Synergistic expansion of CD8^+ T cells”.

Turning to `CCOCc1nc2c(N)nc3ccccc3c2n1CC(C)(C)N` [IRM3, 1-(2-amino-2-methylpropyl)-2-(ethoxymethyl)-1H-imidazo[4,5-c]quinolin-4-amine], in the assay with CD8^+ T cells [7], the “Expansion of CD8^+ T cells” value was “Synergistic expansion of CD8^+ T cells”.

Take `CCc1nc2c(N)nc3ccccc3c2n1CCCCNS(C)(=O)=O` [IRM4, N-[4-(4-amino-2-ethyl-1H-imidazo[4,5-c]quinolin-1-yl)butyl]-methanesulfonamide]: in the assay with CD8^+ T cells [7], the “Expansion of CD8^+ T cells” value is listed as “Synergistic expansion of CD8^+ T cells”.

With `CCCc1nc2c(N)nc3ccccc3c2n1CCCCNS(C)(=O)=O` [IRM5, N-[4-(4-amino-2-propyl-1H-imidazo[4,5-c]quinolin-1-yl)butyl]-methanesulfonamide], in the assay on CD8^+ T cells [7], the “Expansion of CD8^+ T cells” value is “Synergistic expansion of CD8^+ T cells”.
